Experiments:
Format in all cases: cell-based
[1] = test system: human platelets; experiment: Loading of platelets with trehalose (anthrone reaction); conditions: for trehalose uptake: 37° C.; for loading efficiency of trehalose: 4 hour incubation, 50 mM external trehalose
Procedure: Washing of Platelets. Platelet concentrations were obtained from the Sacramento blood center or from volunteers in our laboratory. Platelet rich plasma was centrifuged for 8 minutes at 320×g to remove erythrocytes and leukocytes. The supernatant was pelleted and washed two times (480×g for 22 minutes, 480×g for 15 minutes) in buffer A (100 MM NaCl, 10 MM KCl, 10 mM EGTA, 10 mM imidazole, pH 6.8). Platelet counts were obtained on a Coulter counter T890 (Coulter, Inc., Miami, Fla.).
Loading of Platelets with Trehalose. Washed platelets in a concentration of 1-2 10^9 platelets/ml were incubated at various temperatures in the presence of 1-20 mg/ml trehalose. Incubation temperatures were chosen from 4° C. to 37° C. Incubation times were varied from 0.5 to 4 hours. After incubation the platelet solutions were washed in buffer A two times (by centrifugation at 14,000 RPM for 20 s in a table centrifuge). Platelet counts were obtained on a coulter counter. Platelets were pelleted (45 S at 14,000 RPM) and sugars were extracted from the pellet using 80% methanol. The samples were heated for 30 minutes at 80° C. The methanol was 10 evaporated with nitrogen, and the samples were kept dry and redissolved in H2O prior to analysis. The amount of trehalose in the platelets was quantified using the anthrone reaction (Umbreit et al., Mamometric and Biochemical Techniques, 5th Edition, 1972). Samples were redissolved in 3 ml H2O and 6 ml anthrone reagents (2 g anthrone dissolved in 10M sulfuric acid). After vortex mixing, the samples were placed in a boiling water bath for 3 minutes. Then the samples were cooled on ice and the absorbance was measured at 620 nm on a Perkin Elmer spectrophotometer. The amount of platelet associated trehalose was determined using a standard curve of trehalose.
Quantification of Trehalose and LYCH Concentration. Uptake was calculated for each sample as micrograms of trehalose or LYCH per platelet. The internal trehalose concentration was calculated assuming a platelet radius of 1.2 μm and by assuming that 50% of the platelet volume is taken up by the cytosol (rest is membranes). The loading efficiency was determined from the cytosolic trehalose or LYCH concentration and the concentration in the loading buffer.

[2] = test system: erythrocytic cells; experiment: Mean corpuscular hemoglobin of trehalose-loaded, freeze-dried and rehydrated erythrocytic cells
Procedure: The cells had been loaded in media with different trehalose concentration (400 mM trehalose, 500 mM trehalose, 600 mM trehalose, 700 mM trehalose and 800 mm trehalose) in 100 mOsm PBS pH 7.2. The cells were freeze-dried in 300 mM trehalose in 100 mOsm PBS, 15% HES and 2.54% HSA and rehydrated in a buffer containing 188 mM trehalose, 15% HES and 2.5% HSA.

[3] = test system: erythrocytic cells; experiment: ATP level of erythrocytic cells
Excerpt: (§1) Levels of ATP and DPG may be measured or assayed in biological samples (e.g., in cells) by any suitable means or procedure. By way of example only, levels of ATP and DPG may be measured or assayed in biological samples (e.g., in cells) by using Sigma Diagnostic (Sigma Aldrich Chemicals, St. Louis, Mo.) assay kits (cat. # for ATP assay 366 and 366-A, and for 2,3-DPG assay 35-A) designed for determination of ATP and 2,3-DPG in biological samples (e.g., red blood cells). By further way of example only, biological samples (e.g., cells) may be lysed using 12% and 8% trichloracetic acid for ATP and 2,3-DPG determination, respectively. ATP may be quantified enzymatically by catalyzing ATP to ADP in the presence of 3-phosphoglycerate (3-PGA) using phosphoglycerate phosphokinase (PGK) and the resulting 1,3-diphosphoglycerate induced oxidation of NADH to NAD using glyceraldehyde phosphate dehydrogenase (GAPD) present in the assay media. The level of NADH may be monitored spectrophotometrically at 340 nm which corresponds directly with the ATP level. 2,3-DPG may be hydrolyzed by 2,3-DPG phosphatase to 3-PGA and inorganic phosphorus in the presence of 2-phosphoglycolic acid as a stimulator. 3-PGA reacts with ATP in the presence of PGK and the subsequent steps follow the above protocol used for ATP quantification. […]

[4] = test system: erythrocytic cells; experiment: 2,3-DPG level of erythrocytic cells
Excerpt: as §1

[5] = test system: erythrocytic cells; experiment: Percent hemolysis of erythrocytic cells during loading or incubation; conditions: 800 mM trehalose, 100 mOsm ADSOL, 6.6 mM Na-phosphate; 38-41° C., 6 hours

With `OC[C@H]1O[C@H](O[C@H]2O[C@H](CO)[C@@H](O)[C@H](O)[C@H]2O)[C@H](O)[C@@H](O)[C@@H]1O` [trehalose] the trehalose uptake ([1]; after 2 hours, rapid linear uptake) was 3.3×10^−10 mol/m^2s, the trehalose uptake ([1]; from 0 to 2 hours) was 2.8×10^−11 mol/m^2s and the “loading efficiency of trehalose” value ([1]; 22° C. and below) was “below 5%”. For the same compound, the “loading efficiency of trehalose” value ([1]; 37° C. (FIG. 1)) was 35%, the loading efficiency ([1]; time course at 37° C., incubation period of 4 hours (FIG. 2)) was 61% and the “mean corpuscular hemoglobin in rehydrated cells” value ([2]; cells loaded in 400 mM trehalose) was “about 7 pg”. For the same compound, the “mean corpuscular hemoglobin in rehydrated cells” value ([2]; cells loaded in 800 mM trehalose) was “about 14 pg”, the MCH ([2]; intracellular trehalose about 40 mM to about 42 mM) was “about 9 pg” and the MCH ([2]; intracellular trehalose about 60 mM) was “greater than 14 pg”. The “level of ATP” value ([3]; 37° C., during 16 hours of incubation) was “does not decrease”, the “level of ATP” value ([3]; trehalose solute solution, about 37° C., about 0 to about 7 hours, increases from about 4.0) was “about 4.5 μmol/gHb” and the “level of 2,3-DPG” value ([4]; 37° C., first 7 hours of incubation) was “high”. For the same compound, the “level of 2,3-DPG” value ([4]; 7 hours incubation at about 37° C. in a trehalose containing solution) was “about 8.5 μmol/gHb” and the “extent of hemolysis during loading” value [5] was “about 17%”.
